Tests used:
Assay in all cases: Example 5 greenhouse trials, postemergence visual injury
[1] = test system: Roundup Ready® canola (Brassica napus, RR-BRSNN)
[2] = test system: winter oilseed rape (Brassica napus, BRSNW)
[3] = test system: Nexera™ canola (Brassica napus, BRSNN-NEX)
[4] = test system: rutabaga (Brassica napus var. napobrassica, BRSNA)
[5] = test system: kale/Chinese kale (Brassica alboglabra, BRSAG)
[6] = test system: turnip or Polish canola (Brassica rapa, BRSRR)

CCOC(=O)C1=NN(c2ccc(Cl)cc2Cl)C(C)(C(=O)OCC)C1 (racemic) [Mefenpyr-diethyl, diethyl (RS)-1-(2,4-dichlorophenyl)-5-methyl-2-pyrazoline-3,5-dicarboxylate]
0%: Percent (%) Visual Injury RR-BRSNN Obs ([1]; safener alone 5 g ai/ha) | Percent (%) Visual Injury RR-BRSNN Obs ([1]; safener alone 10 g ai/ha) | Percent (%) Visual Injury RR-BRSNN Obs ([1]; safener alone 20 g ai/ha) | Percent (%) Visual Injury RR-BRSNN Obs ([1]; safener alone 40 g ai/ha) | Percent (%) Visual Injury BRSNW Obs ([2]; safener alone 5 g ai/ha) | Percent (%) Visual Injury BRSNW Obs ([2]; safener alone 10 g ai/ha) | Percent (%) Visual Injury BRSNW Obs ([2]; safener alone 20 g ai/ha) | Percent (%) Visual Injury BRSNW Obs ([2]; safener alone 40 g ai/ha) | Percent (%) Visual Injury BRSNN-NEX Obs ([3]; safener alone 5 g ai/ha) | Percent (%) Visual Injury BRSNN-NEX Obs ([3]; safener alone 10 g ai/ha) | Percent (%) Visual Injury BRSNN-NEX Obs ([3]; safener alone 20 g ai/ha) | Percent (%) Visual Injury BRSNN-NEX Obs ([3]; safener alone 40 g ai/ha) | Percent (%) Visual Injury BRSNA Obs ([4]; safener alone 5 g ai/ha) | Percent (%) Visual Injury BRSNA Obs ([4]; safener alone 10 g ai/ha) | Percent (%) Visual Injury BRSNA Obs ([4]; safener alone 20 g ai/ha) | Percent (%) Visual Injury BRSNA Obs ([4]; safener alone 40 g ai/ha) | Percent (%) Visual Injury BRSAG Obs ([5]; safener alone 5 g ai/ha) | Percent (%) Visual Injury BRSAG Obs ([5]; safener alone 10 g ai/ha) | Percent (%) Visual Injury BRSAG Obs ([5]; safener alone 20 g ai/ha) | Percent (%) Visual Injury BRSAG Obs ([5]; safener alone 40 g ai/ha) | Percent (%) Visual Injury BRSRR Obs ([6]; safener alone 5 g ai/ha) | Percent (%) Visual Injury BRSRR Obs ([6]; safener alone 10 g ai/ha) | Percent (%) Visual Injury BRSRR Obs ([6]; safener alone 20 g ai/ha) | Percent (%) Visual Injury BRSRR Obs ([6]; safener alone 40 g ai/ha)

Source: patent US20170354148A1, “SAFENED HERBICIDAL COMPOSITIONS CONTAINING HALAUXIFEN AND METHODS OF USE THEREOF IN BRASSICA SPECIES” (Dow AgroSciences LLC, priority 2016, published 2017)
